{
  "source": "patent US7018990B2",
  "about": "“Combination of a factor Xa inhibitor and clopidogrel” (Bristol-Myers Squibb Company, priority 2002, dated 2006)",
  "key": {"[1]": {"test_system": "rabbits", "assay": "Electrically induced carotid artery thrombosis in anesthetized rabbits (clot inhibition, carotid blood flow)", "assay_type": "in vivo", "description": "Rabbits were anesthetized with ketamine (50 mg/kg i.m.) and xylazine (10 mg/kg i.m.) and then surgically prepared with arterial and venous catheters. An electromagnetic flow probe was placed on a segment of an isolated carotid artery to monitor blood flow. Thrombus formation was induced by electrical stimulation of the carotid artery for 3 min at 4 mA using an external stainless-steel bipolar electrode. Carotid blood flow was measured continuously over a 45-min period to monitor thrombus occlusion. Compound A was infused intravenously whereas clopidogrel was infused into the portal vein. Both agents were infused 1 hour prior to the electrical stimulation of the carotid artery and continuously during the 45-min period.\n(§1) The same experimental protocol as described in Example 1 was used in this study. Aspirin was infused intravenously whereas clopidogrel was infused into the portal vein. Both agents were infused 1 hour prior to the electrical stimulation of the carotid artery and the cuticle transection, and continuously to the end of the experiment.\nThe same experimental protocol as described in Example 1 was used in this study. Aspirin and Compound A were infused intravenously."}, "[2]": {"test_system": "rabbits", "assay": "Cuticle bleeding time in anesthetized rabbits", "settings": "clopidogrel 1 mg/kg/hr infused into the portal vein, compared to the vehicle-group", "description": "The bleeding time effects of Compound A, clopidogrel, and their combination were examined in anesthetized rabbits. Rabbits were anesthetized as described above and their hind paws were shaved. A standard cut was made at the apex of the cuticle with a razor blade. Blood was allowed to flow freely by keeping the bleeding site in contact with 37° C. warm lactated Ringer's solution. Bleeding time was defined as the time after transection when bleeding was ceased. It was measured by averaging the bleeding time of three nail cuticles in the control and treatment period. Percentage change in cuticle bleeding time is calculated by comparing the bleeding time taken in the treatment period to the control bleeding time. Compounds were infused as described above.\nas §1"}, "[3]": {"settings": "aspirin 0.3 mg/kg/hr infused intravenously"}, "[4]": {"settings": "clopidogrel 1 mg/kg/hr infused into the portal vein"}, "[5]": {"settings": "Compound A 0.1 mg/kg/hr infused intravenously"}},
  "data": [
    {"smiles": "CC(=O)Oc1ccccc1C(=O)O", "note": "[aspirin, acetylsalicyclic acid]", "values": [
      {"measurement": "carotid blood flow", "setting": "[1]; [3]", "result": "not effective"},
      {"measurement": "inhibition of clot formation", "setting": "[1]; [3]", "result": "not effective in inhibiting the formation of clot"}
    ]},
    {"smiles": "COC(=O)[C@H](c1ccccc1Cl)N1CCc2sccc2C1", "note": "[clopidogrel, Clopidogrel]", "values": [
      {"measurement": "bleeding time", "setting": "[2]", "result": "increased the bleeding time significantly"},
      {"measurement": "carotid blood flow", "setting": "[1]; [4]", "result": "increase in carotid blood flow"},
      {"measurement": "inhibition of clot formation", "setting": "[1]; [4]", "result": "moderate inhibition of clot formation"}
    ]},
    {"smiles": "CN(C)Cc1nccn1-c1ccc(NC(=O)c2cc(C(F)(F)F)nn2-c2ccc3onc(N)c3c2)c(F)c1.Cl", "note": "[Compound A, 1-(3′-aminobenzisoxazol-5′-yl)-3-trifluoromethyl-5-[[4-[(2′-dimethylaminomethyl)imidazol-1′-yl]-2fluorophenyl]aminocarbonyl]pyrazole-hydrochloric acid salt]", "values": [
      {"measurement": "carotid blood flow", "setting": "[1]; [5]", "result": "increase in carotid blood flow"},
      {"measurement": "inhibition of clot formation", "setting": "[1]; [5]", "result": "moderate inhibition of clot formation"}
    ]}
  ]
}
